Experimental data as given in US9045650B2, “Polymer with salt groups and antifouling coating composition comprising said polymer” (AKZO NOBEL COATINGS INTERNATIONAL B.V., priority 2008, dated 2015).

Experiment: Salt formation of monomeric salts analysed by spectroscopic methods (IR, 1H NMR) and observation on mixing
Assay type: physicochemical
Conditions: solid sample, ATR
Experimental: The monomeric salt was analysed using infra-red (IR) spectroscopy (solid sample analysis using Avatar 360 infra-red spectrometer with Golden Gate diamond ATR attachment).
In an effort to further illustrate the relationship between acid/base pKa and the stability of the resulting polymer, a series of monomeric salts was prepared and analysed by spectroscopic methods.
Each of the monomeric salts were prepared by mixing the constituent acid/base starting materials in methanol at a concentration of 1.968 M. Following the addition of the acid/base starting materials, the mixture was stirred at room temperature for 24 h. The monomeric salt was then isolated by evaporation of the solvent.
^1H NMR spectroscopy was carried out on a CDCl3 solution of the monomeric salt (0.0827 M). Peaks associated with resonances for both CH2 groups present in the DMAEMA moiety were seen to shift downfield in the spectrum of this sample when compared to the reference spectrum of the DMAEMA starting material (CH2—CH2—NMe2 δ 4.25 shifted to δ 4.6 and CH2—CH2—NMe2 δ 2.6 shifted to δ 3.5). […] This is attributed to the change in the chemical environment of the CH2 resonances as a result of the complete protonation of the neighbouring NMe2 moiety.

Row | Compound | salt formation by IR spectroscopy
1 | C=C(C)C(=O)NCCCN(C)C.CCCCCCCCCCCCCCCC(=O)O [Comparative Example A (monomeric salt)] | incomplete salt formation
2 | C=C(C)C(=O)NCCCN(C)C.CCCCCC(=O)O [Comparative Example C] | incomplete salt formation
